Legend:
[1] = molecular target: Human α2δ-1 Subunit of Cav2.2 Calcium Channel (Homo sapiens, UniProt P54289); assay: Human α2δ-1 subunit of Cav2.2 calcium channel assay, [3H]-Gabapentin binding; settings: human α2δ-1 enriched membranes, 15 nM [3H]-Gabapentin
Protocol: Human α2δ-1 Subunit of Cav2.2 Calcium Channel Assay
Human α2δ-1 enriched membranes (2.5 μg) were incubated with 15 nM of radiolabeled [3H]-Gabapentin in assay buffer containing Hepes-KOH 10 mM, pH 7.4. NSB (non specific binding) was measured by adding 10 μM pregabalin. The binding of the test compound was measured at five different concentrations. After 60 min incubation at 27° C., binding reaction was terminated by filtering through Multiscreen GF/C (Millipore) presoaked in 0.5% polyethyleneimine in Vacuum Manifold Station, followed by 3 washes with ice-cold filtration buffer containing 50 mM Tris-HCl, pH 7.4. Filter plates were dried at 60° C. for 1 hour and 30 μl of scintillation cocktail were added to each well before radioactivity reading. Readings were performed in a Trilux 1450 Microbeta radioactive counter (Perkin Elmer).

[2] = molecular target: Human norepinephrine transporter (NET) (Homo sapiens, UniProt P23975); assay: Binding assay to human norepinephrine transporter (NET), [3H]-Nisoxetin; settings: human NET enriched membranes, 5 nM [3H]-Nisoxetin
Chain of Human norepinephrine transporter (NET) (P23975 whole entry): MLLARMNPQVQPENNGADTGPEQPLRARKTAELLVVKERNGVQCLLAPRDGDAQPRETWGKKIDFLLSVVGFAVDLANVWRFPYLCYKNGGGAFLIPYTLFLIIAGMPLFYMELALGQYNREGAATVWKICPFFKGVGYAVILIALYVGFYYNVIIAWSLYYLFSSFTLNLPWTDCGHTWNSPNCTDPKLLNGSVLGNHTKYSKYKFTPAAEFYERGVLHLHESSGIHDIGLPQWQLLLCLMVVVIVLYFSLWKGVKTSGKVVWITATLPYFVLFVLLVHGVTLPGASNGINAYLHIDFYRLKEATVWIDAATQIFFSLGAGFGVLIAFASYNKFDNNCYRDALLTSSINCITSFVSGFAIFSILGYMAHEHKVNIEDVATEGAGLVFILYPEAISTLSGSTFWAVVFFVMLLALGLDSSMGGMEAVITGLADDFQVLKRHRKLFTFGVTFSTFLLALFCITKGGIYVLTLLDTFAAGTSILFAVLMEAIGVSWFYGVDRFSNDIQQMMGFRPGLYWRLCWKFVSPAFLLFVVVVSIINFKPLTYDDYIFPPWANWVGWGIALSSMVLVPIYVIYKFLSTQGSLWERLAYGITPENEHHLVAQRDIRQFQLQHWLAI
Protocol: Binding Assay to Human Norepinephrine Transporter (NET).
Human norepinephrine transporter (NET) enriched membranes (5 μg) were incubated with 5 nM of radiolabeled [3H]-Nisoxetin in assay buffer containing 50 mM Tris-HCl, 120 mM NaCl, 5 mM KCl, pH 7.4. NSB (non specific binding) was measured by adding 10 μM of desipramine. The binding of the test compound was measured at five different concentrations. After 60 min incubation at 4° C., binding reaction was terminated by filtering through Multiscreen GF/C (Millipore) presoaked in 0.5% polyethyleneimine in Vacuum Manifold Station, followed by 3 washes with ice-cold filtration buffer containing 50 mM Tris-HCl, 0.9% NaCl, pH 7.4. Filter plates were dried at 60° C. for 1 hour and 30 μl of scintillation cocktail were added to each well before radioactivity reading. Readings were performed in a Trilux 1450 Microbeta radioactive counter (Perkin Elmer).

Chain of Human α2δ-1 Subunit of Cav2.2 Calcium Channel (P54289 25-1103): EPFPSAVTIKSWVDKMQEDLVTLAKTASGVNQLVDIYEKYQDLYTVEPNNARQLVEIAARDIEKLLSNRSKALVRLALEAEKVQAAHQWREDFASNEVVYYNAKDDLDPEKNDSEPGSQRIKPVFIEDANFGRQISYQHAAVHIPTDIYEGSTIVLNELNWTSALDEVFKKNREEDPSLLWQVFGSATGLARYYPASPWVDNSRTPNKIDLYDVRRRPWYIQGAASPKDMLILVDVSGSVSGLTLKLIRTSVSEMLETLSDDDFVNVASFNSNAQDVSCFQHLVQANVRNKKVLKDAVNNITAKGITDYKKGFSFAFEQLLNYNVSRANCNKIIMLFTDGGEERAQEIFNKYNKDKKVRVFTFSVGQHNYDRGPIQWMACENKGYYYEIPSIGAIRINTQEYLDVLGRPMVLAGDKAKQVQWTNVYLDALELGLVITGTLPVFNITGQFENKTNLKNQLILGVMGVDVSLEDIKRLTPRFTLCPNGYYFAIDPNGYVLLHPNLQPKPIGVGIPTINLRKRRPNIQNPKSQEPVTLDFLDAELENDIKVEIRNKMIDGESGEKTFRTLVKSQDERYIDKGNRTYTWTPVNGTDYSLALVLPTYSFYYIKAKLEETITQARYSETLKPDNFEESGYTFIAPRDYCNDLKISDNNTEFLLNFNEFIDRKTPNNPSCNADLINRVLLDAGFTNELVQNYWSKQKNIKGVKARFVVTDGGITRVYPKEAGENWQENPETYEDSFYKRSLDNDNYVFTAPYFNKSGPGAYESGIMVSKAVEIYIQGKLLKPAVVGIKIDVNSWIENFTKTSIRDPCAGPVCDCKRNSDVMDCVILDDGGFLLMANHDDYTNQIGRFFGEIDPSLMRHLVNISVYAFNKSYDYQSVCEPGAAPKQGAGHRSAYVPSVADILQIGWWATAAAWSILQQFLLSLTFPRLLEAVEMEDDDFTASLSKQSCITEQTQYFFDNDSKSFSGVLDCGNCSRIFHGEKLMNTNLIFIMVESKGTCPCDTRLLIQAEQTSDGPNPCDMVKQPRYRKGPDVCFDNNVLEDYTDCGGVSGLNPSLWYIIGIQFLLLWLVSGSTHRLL

Structure (SMILES)	Ki [1] [µM]	Ki [2] [µM]
CNCCC(Oc1cccc(-n2nc3c(N(C)CCCO)nnc(C)c3c2C)c1)c1ccccc1F (centres unmarked) [Example 32, 3-((2-(3-(1-(2-fluorophenyl)-3-(methylamino)propoxy)phenyl)-3,4-dimethyl-2H-pyrazolo[3,4-d]pyridazin-7-yl)(methyl)amino)propan-1-ol]	0.5 to 5	< 0.1
CNCCC(Oc1cccc(-n2nc3c(N(C)C)nnc(C)c3c2C)c1)c1cccnc1 (centres unmarked) [Example 42, N,N,3,4-tetramethyl-2-(3-(3-(methylamino)-1-(pyridin-3-yl)propoxy)phenyl)-2H-pyrazolo[3,4-d]pyridazin-7-amine]	< 0.5	0.1 to 0.5
Cc1nnc(N(C)C)c2nn(-c3cccc(OC(Cc4ccccc4)CN(C)Cc4ccccc4)c3)c(C)c12 (centres unmarked) [Example 44, 2-(3-((1-(benzyl(methyl)amino)-3-phenylpropan-2-yl)oxy)phenyl)-N,N,3,4-tetramethyl-2H-pyrazolo[3,4-d]pyridazin-7-amine]	≥ 5	≥ 1
CNCC[C@@H](Oc1cccc(-n2nc3c(N(C)C)nnc(C)c3c2C)c1)c1cccnc1 [Example 65, (R)-N,N,3,4-tetramethyl-2-(3-(3-(methylamino)-1-(pyridin-3-yl)propoxy)phenyl)-2H-pyrazolo[3,4-d]pyridazin-7-amine]	0.5 to 5	0.5 to 1
CNCCC(Oc1cccc(-n2nc3c(N(C)C)nnc(C)c3c2C)c1)c1cccs1 (centres unmarked) [Example 51, N,N,3,4-Tetramethyl-2-(3-(3-(methylamino)-1-(thiophen-2-yl)propoxy)phenyl)-2H-pyrazolo[3,4-d]pyridazin-7-amine]	0.5 to 5	< 0.1
Cc1nnc(N(C)C)c2nn(-c3cccc(OCC4CCN(CCc5ccccc5)CC4)c3)c(C)c12 [Example 53, N,N,3,4-Tetramethyl-2-(3-((1-phenethylpiperidin-4-yl)methoxy)phenyl)-2H-pyrazolo[3,4-d]pyridazin-7-amine]	0.5 to 5	0.1 to 0.5
CNCCC(Oc1cccc(-n2nc3c(N(C)C)nnc(C)c3c2C)c1)c1ccccc1OC (centres unmarked) [Example 36, 2-(3-(1-(2-methoxyphenyl)-3-(methylamino)propoxy)phenyl)-N,N,3,4-tetramethyl-2H-pyrazolo[3,4-d]pyridazin-7-amine]	0.5 to 5	0.1 to 0.5
CNCCC(Oc1cccc(-n2nc3c(N(C)C)nnc(C)c3c2C)c1)c1cc(F)cc(F)c1 (centres unmarked) [Example 18, 2-(3-(1-(3,5-difluorophenyl)-3-(methylamino)propoxy)phenyl)-N,N,3,4-tetramethyl-2H-pyrazolo[3,4-d]pyridazin-7-amine]	0.5 to 5	0.1 to 0.5
CNCC(Oc1cccc(-n2nc3c(N(C)C)nnc(C)c3c2C)c1)c1cccs1 (centres unmarked) [Example 40, N,N,3,4-tetramethyl-2-(3-(2-(methylamino)-1-(thiophen-2-yl)ethoxy)phenyl)-2H-pyrazolo[3,4-d]pyridazin-7-amine]	0.5 to 5	0.5 to 1
CNCCC(Oc1cccc(-n2nc3c(N(C)C)nnc(C)c3c2C)c1)c1ccc(F)cc1 (centres unmarked) [Example 8, 2-(3-(1-(4-fluorophenyl)-3-(methylamino)propoxy)phenyl)-N,N,3,4-tetramethyl-2H-pyrazolo[3,4-d]pyridazin-7-amine]	0.5 to 5	< 0.1
CNc1nnc(C)c2c(C)n(-c3cccc(OC(CCN)c4ccccc4F)c3)nc12 (centres unmarked) [Example 23, 2-(3-(3-amino-1-(2-fluorophenyl)propoxy)phenyl)-N,3,4-trimethyl-2H-pyrazolo[3,4-d]pyridazin-7-amine]	0.5 to 5	0.1 to 0.5
CNCCC(Oc1cccc(-n2nc3c(N(C)C)nnc(C)c3c2C)c1)c1ccncc1 (centres unmarked) [Example 10, N,N,3,4-tetramethyl-2-(3-(3-(methylamino)-1-(pyridin-4-yl)propoxy)phenyl)-2H-pyrazolo[3,4-d]pyridazin-7-amine]	0.5 to 5	< 0.1
CNCCC(Oc1cccc(-n2nc3c(N(C)C)nnc(C)c3c2C)c1)c1cncs1 (centres unmarked) [Example 48, N,N,3,4-tetramethyl-2-(3-(3-(methylamino)-1-(thiazol-5-yl)propoxy)phenyl)-2H-pyrazolo[3,4-d]pyridazin-7-amine]	< 0.5	0.5 to 1
CNCCC(Oc1cccc(-n2nc3c(N(C)C)nnc(C)c3c2C)c1)c1ccc(OC(F)(F)F)cc1 (centres unmarked) [Example 46, N,N,3,4-tetramethyl-2-(3-(3-(methylamino)-1-(4-(trifluoromethoxy)phenyl)propoxy)phenyl)-2H-pyrazolo[3,4-d]pyridazin-7-amine]	0.5 to 5	0.1 to 0.5
CNCCC(Oc1cccc(-n2nc3c(N(C)C)nnc(C)c3c2C)c1)c1cccc(OC)c1 (centres unmarked) [Example 39, 2-(3-(1-(3-methoxyphenyl)-3-(methylamino)propoxy)phenyl)-N,N,3,4-tetramethyl-2H-pyrazolo[3,4-d]pyridazin-7-amine]	0.5 to 5	< 0.1
Cc1nnc(N(C)C)c2nn(-c3cccc(OC(CN(C)C)c4cccnc4)c3)c(C)c12 (centres unmarked) [Example 52, 2-(3-(2-(Dimethylamino)-1-(pyridin-3-yl)ethoxy)phenyl)-N,N,3,4-tetramethyl-2H-pyrazolo[3,4-d]pyridazin-7-amine]	0.5 to 5	≥ 1

The remaining lines, values ahead:

Ki [1] [µM]	Ki [2] [µM]	Structure (SMILES)
0.5 to 5	0.5 to 1	CNc1nnc(C)c2c(C)n(-c3cccc(OC(CCN)c4ccccc4)c3)nc12 (centres unmarked) [Example 24, 2-(3-(3-amino-1-phenylpropoxy)phenyl)-N,3,4-trimethyl-2H-pyrazolo[3,4-d]pyridazin-7-amine]
0.5 to 5	< 0.1	CNCC(Oc1cccc(-n2nc3c(N(C)C)nnc(C)c3c2C)c1)c1ccccc1 (centres unmarked) [Example 35, N,N,3,4-tetramethyl-2-(3-(2-(methylamino)-1-phenylethoxy)phenyl)-2H-pyrazolo[3,4-d]pyridazin-7-amine]
0.5 to 5	0.1 to 0.5	Cc1nnc(N(C)C)c2nn(-c3cccc(OC(CCNCCF)c4ccccc4)c3)c(C)c12 (centres unmarked) [Example 54, 2-(3-(3-((2-fluoroethyl)amino)-1-phenylpropoxy)phenyl)-N,N,3,4-tetramethyl-2H-pyrazolo[3,4-d]pyridazin-7-amine]
0.5 to 5	≥ 1	Cc1nnc(N(C)C)c2nn(-c3cccc(OC(CCN)c4cccnc4)c3)c(C)c12 (centres unmarked) [Example 50, 2-(3-(3-amino-1-(pyridin-3-yl)propoxy)phenyl)-N,N,3,4-tetramethyl-2H-pyrazolo[3,4-d]pyridazin-7-amine]
0.5 to 5	0.1 to 0.5	Cc1nnc(N(C)C)c2nn(-c3cccc(OCCC(N)c4ccccc4)c3)c(C)c12 (centres unmarked) [Example 14, 2-(3-(3-amino-3-phenylpropoxy)phenyl)-N,N,3,4-tetramethyl-2H-pyrazolo[3,4-d]pyridazin-7-amine]
0.5 to 5	0.1 to 0.5	CCNCCC(Oc1cccc(-n2nc3c(N(C)C)nnc(C)c3c2C)c1)c1ccccc1 (centres unmarked) [Example 3, 2-(3-(3-(ethylamino)-1-phenylpropoxy)phenyl)-N,N,3,4-tetramethyl-2H-pyrazolo[3,4-d]pyridazin-7-amine]
0.5 to 5	0.1 to 0.5	CNC[C@H](Oc1cccc(-n2nc3c(N(C)C)nnc(C)c3c2C)c1)c1ccccc1 [Example 60, (R)-N,N,3,4-Tetramethyl-2-(3-(2-(methylamino)-1-phenylethoxy)phenyl)-2H-pyrazolo[3,4-d]pyridazin-7-amine]
0.5 to 5	0.1 to 0.5	CNCCC(Oc1cccc(-n2nc3c(NC)nnc(C)c3c2C)c1)c1ccccc1 (centres unmarked) [Example 25, N,3,4-trimethyl-2-(3-(3-(methylamino)-1-phenylpropoxy)phenyl)-2H-pyrazolo[3,4-d]pyridazin-7-amine]
0.5 to 5	< 0.1	CNCC[C@@H](Oc1cccc(-n2nc3c(N(C)C)nnc(C)c3c2C)c1)c1ccccc1F [Example 62, (R)-2-(3-(1-(2-Fluorophenyl)-3-(methylamino)propoxy)phenyl)-N,N,3,4-tetramethyl-2H-pyrazolo[3,4-d]pyridazin-7-amine]
0.5 to 5	< 0.1	CNCCC(Oc1cccc(-n2nc3c(N(C)C)nnc(C)c3c2C)c1)c1cccc(F)c1 (centres unmarked) [Example 5, 2-(3-(1-(3-fluorophenyl)-3-(methylamino)propoxy)phenyl)-N,N,3,4-tetramethyl-2H-pyrazolo[3,4-d]pyridazin-7-amine]
0.5 to 5	0.1 to 0.5	Cc1nnc(N(C)C)c2nn(-c3cccc(OC(CCN)c4ccc(F)cc4)c3)c(C)c12 (centres unmarked) [Example 20, 2-(3-(3-amino-1-(4-fluorophenyl)propoxy)phenyl)-N,N,3,4-tetramethyl-2H-pyrazolo[3,4-d]pyridazin-7-amine]
0.5 to 5	0.1 to 0.5	CNCC[C@@H](Oc1cccc(-n2nc3c(N(C)C)nnc(C)c3c2C)c1)c1ccccc1 [Example 59, (R)-N,N,3,4-tetramethyl-2-(3-(3-(methylamino)-1-phenylpropoxy)phenyl)-2H-pyrazolo[3,4-d]pyridazin-7-amine]

— patent US20200190081A1, “META SUBSTITUTED PHENYLPYRAZOLO- AND PHENYLPYRROLO- PYRIDAZINE DERIVATIVES HAVING MULTIMODAL ACTIVITY AGAINST PAIN” (ESTEVE PHARMACEUTICALS, S.A., priority 2016, published 2020)
